The text below walks through data of ChEMBL document CHEMBL1131892, “Synthesis and biological activities of NB-506 analogues: Effects of the positions of two hydroxyl groups at the indole rings” (Bioorg Med Chem Lett, 1999).

The subject of one test is DLD-1. In words: In vitro cytotoxicity against DLD-1 (human colon cancer) cells. It is filed as functional, cell-based.
The next test deals with MKN-45. Nature of the test: In vitro cytotoxicity against MKN-45 (human stomach cancer) cells. It is filed as functional, cell-based.
The subject of test [1] is P388. Nature of the test: Inhibition of protein-DNA complex in P388 (murine leukemia) cells. In kind it is functional, Mus musculus.
Test [2] concerns P388. In words: In vitro cytotoxicity against p388 (murine leukemia) cells. It is filed as functional, cell-based. The note with it: Mus musculus.
The target in a further test is T1, DNA topoisomerase 1 (Homo sapiens, UniProt P11387).
T1 sequence (P11387 whole entry): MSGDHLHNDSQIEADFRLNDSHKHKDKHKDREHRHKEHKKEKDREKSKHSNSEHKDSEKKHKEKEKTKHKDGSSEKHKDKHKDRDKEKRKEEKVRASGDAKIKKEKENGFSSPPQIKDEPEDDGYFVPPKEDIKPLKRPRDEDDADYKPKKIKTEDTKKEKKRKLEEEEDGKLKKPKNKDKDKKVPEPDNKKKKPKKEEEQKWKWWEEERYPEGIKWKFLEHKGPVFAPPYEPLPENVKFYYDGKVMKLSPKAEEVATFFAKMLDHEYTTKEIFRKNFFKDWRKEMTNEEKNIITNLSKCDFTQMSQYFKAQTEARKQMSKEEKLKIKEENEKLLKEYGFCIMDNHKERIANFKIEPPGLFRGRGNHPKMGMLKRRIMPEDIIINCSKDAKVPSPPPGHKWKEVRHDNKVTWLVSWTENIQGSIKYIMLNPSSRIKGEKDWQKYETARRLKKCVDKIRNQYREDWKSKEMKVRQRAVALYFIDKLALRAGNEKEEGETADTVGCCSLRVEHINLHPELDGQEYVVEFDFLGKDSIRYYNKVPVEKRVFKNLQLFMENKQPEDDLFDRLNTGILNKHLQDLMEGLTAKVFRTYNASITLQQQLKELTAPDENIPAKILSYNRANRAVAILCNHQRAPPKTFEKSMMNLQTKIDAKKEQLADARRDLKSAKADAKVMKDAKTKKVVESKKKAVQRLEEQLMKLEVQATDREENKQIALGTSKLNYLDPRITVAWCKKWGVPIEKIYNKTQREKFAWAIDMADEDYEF
In words: In vitro inhibition of Topoisomerase I-mediated DNA cleavage using supercoiled pBR322 plasmid DNA.

The next test deals with Mus musculus. Nature of the test: Tested for anticancer effect on MKN-45 human stomach cancer cells implanted subcutaneously into flanks of nude mice. It is filed as functional.
Test [3] in a line: Compound was tested for anticancer effect on cancer cells implanted subcutaneously into flanks of nude mice and safety margin was determined (LD10/GID75). In kind it is functional, Cancer cell lines.

For the molecule `O=C1c2c(c3c4cc(O)ccc4n(C4OC(CO)C(O)C(O)C4O)c3c3[nH]c4ccccc4c23)C(=O)N1NC(CO)CO` (stereo not given), the IC50 in the test with DLD-1 is above 30 µM; in the test on MKN-45, 4.2 µM; in the test with P388 [2], 0.047 µM. The EC200 in the test with P388 [1] is 4.5 µM. The same molecule came in with a half-maximal effective concentration (EC50) on DNA topoisomerase 1 of 1.9 µM.
Taken in the same sequence, the figures for `O=C1c2c(c3c4c(O)cccc4n(C4OC(CO)C(O)C(O)C4O)c3c3[nH]c4ccccc4c23)C(=O)N1NC(CO)CO` (stereo not given) were above 30 µM, 7.1 µM, 0.91 µM, above 10 µM and 0.49 µM.
Turning to `O=C1c2c(c3c4ccc(O)cc4n(C4OC(CO)C(O)C(O)C4O)c3c3[nH]c4cc(O)ccc4c23)C(=O)N1NC(CO)CO` (stereo not given), the IC50 with DLD-1 came to 0.12 µM; in the test with MKN-45, 0.0048 µM; with P388 [2] it was 0.0015 µM. The same molecule came in with a GID75 with Mus musculus of 45 mg m**-2. The molecule further registered an LD10 with Mus musculus above 1600 mg m**-2. Further, the EC200 with P388 [1] came out at 0.1 µM. In test [3], the Ratio is listed as above 36. Also, the EC50 at DNA topoisomerase 1 came out at 0.051 µM.
Consider `O=C1c2c(c3c4ccc(O)cc4n(C4OC(CO)C(O)C(O)C4O)c3c3[nH]c4c(O)cc(O)cc4c23)C(=O)N1NC(CO)CO` (stereo not given), for which the half-inhibitory concentration (IC50) in the test with DLD-1 was above 30 µM; with MKN-45, above 30 µM; in the test with P388 [2] it was 15 µM. The same molecule displayed an EC200 with P388 [1] above 10 µM. Moreover, the EC50 on DNA topoisomerase 1 was 0.09 µM.
For the molecule `O=C1c2c(c3c4cc(O)ccc4n(C4OC(CO)C(O)C(O)C4O)c3c3[nH]c4c(O)cccc4c23)C(=O)N1NC(CO)CO` (stereo not given), the half-maximal inhibitory concentration (IC50) in the test with DLD-1 was determined as 5.1 µM; in the test on MKN-45, 0.3 µM; in the test with P388 [2], 0.031 µM. The GID75 in the test on Mus musculus worked out at 2200 mg m**-2. In the test on Mus musculus, the LD10 was determined as 1800 mg m**-2. This molecule showed an EC200 in the test with P388 [1] of 3 µM. Further, the Ratio in test [3] is on record as 0.8. The response on DNA topoisomerase 1 was half-maximal at 0.13 µM (EC50).
`O=C1c2c(c3c4cccc(O)c4n(C4OC(CO)C(O)C(O)C4O)c3c3[nH]c4c(O)cccc4c23)C(=O)N1NC(CO)CO` (stereo not given) registered an IC50 in the test on DLD-1 of 0.52 µM. In the test on Mus musculus, this molecule came in with a GID75 of 78 mg m**-2 and an LD10 of 390 mg m**-2. Further, the EC200 in the test on P388 [1] amounted to 0.45 µM. Moreover, the Ratio in test [3] is 5.
As to `O=C1c2c(c3c4ccccc4n(C4OC(CO)C(O)C(O)C4O)c3c3[nH]c4cccc(O)c4c23)C(=O)N1NC(CO)CO` (stereo not given), the figures for the 50% inhibitory concentration (IC50) with DLD-1, in the test on MKN-45 and with P388 [2] were above 30 µM, 2.1 µM and 0.7 µM, respectively. Moreover, in the test on P388 [1], the EC200 is above 10 µM. For the same molecule, at DNA topoisomerase 1, the 50% effective concentration (EC50) was determined as 0.57 µM.
Taken in the same sequence, the figures for `O=C1c2c(c3c4ccccc4n(C4OC(CO)C(O)C(O)C4O)c3c3[nH]c4ccc(O)cc4c23)C(=O)N1NC(CO)CO` (stereo not given) were 5.5 µM, 0.72 µM, 0.13 µM, 2 µM and 1.1 µM.
Regarding `O=C1c2c(c3c4ccc(O)cc4n(C4OC(CO)C(O)C(O)C4O)c3c3[nH]c4ccccc4c23)C(=O)N1NC(CO)CO` (stereo not given), the IC50 is 1 µM in the test with DLD-1, 0.025 µM in the test with MKN-45 and 0.0031 µM in the test with P388 [2]. The molecule also registered a GID75 in the test with Mus musculus of 800 mg m**-2. In the test with Mus musculus, this molecule yielded an LD10 of 1000 mg m**-2. The EC200 in the test with P388 [1] amounted to 0.4 µM. Further, the Ratio in test [3] amounted to 1.3. The molecule further yielded an EC50 at DNA topoisomerase 1 of 0.23 µM.
For the molecule `O=C1c2c(c3c4cccc(O)c4n(C4OC(CO)C(O)C(O)C4O)c3c3[nH]c4cc(O)ccc4c23)C(=O)N1NC(CO)CO` (stereo not given), the IC50 was 0.089 µM in the test on DLD-1, 0.087 µM in the test on MKN-45 and 0.0054 µM in the test with P388 [2]. In the test on Mus musculus, this molecule gave a GID75 of 220 mg m**-2. In addition, the LD10 in the test on Mus musculus worked out at 370 mg m**-2. The same molecule gave an EC200 in the test with P388 [1] of 0.4 µM. Also, the Ratio in test [3] is listed as 1.7. The molecule also yielded a concentration giving a half-maximal response (EC50) on DNA topoisomerase 1 of 0.16 µM.
In the case of `O=C1c2c(c3c4cccc(O)c4n(C4OC(CO)C(O)C(O)C4O)c3c3[nH]c4ccc(O)cc4c23)C(=O)N1NC(CO)CO` (stereo not given), the half-inhibitory concentration (IC50) in the test on DLD-1 turned out to be 0.22 µM; with MKN-45, 0.25 µM; in the test with P388 [2] it was 0.032 µM. In the test on Mus musculus, this molecule yielded a GID75 of 2500 mg m**-2. This molecule had an LD10 in the test on Mus musculus of 1900 mg m**-2. In addition, the EC200 in the test on P388 [1] amounted to 0.55 µM. For the same molecule, the Ratio in test [3] is 0.8. In addition, a half-maximal effect on DNA topoisomerase 1 (EC50) was put at 0.51 µM.
In the case of `O=C1c2c(c3c4ccc(O)cc4n(C4OC(CO)C(O)C(O)C4O)c3c3[nH]c4ccc(O)cc4c23)C(=O)N1NC(CO)CO` (stereo not given), the IC50 in the test with DLD-1 amounted to 0.079 µM; in the test with MKN-45, 0.056 µM; in the test on P388 [2] it was 0.0052 µM. Also, the GID75 in the test with Mus musculus was 290 mg m**-2. The LD10 in the test with Mus musculus is on record as 1000 mg m**-2. This molecule came in with an EC200 in the test with P388 [1] of 0.35 µM. In addition, the Ratio in test [3] came out at 3.4. The molecule also showed a half-maximal effective concentration (EC50) on DNA topoisomerase 1 of 0.037 µM.
Take `O=C1c2c(c3c4cc(O)ccc4n(C4OC(CO)C(O)C(O)C4O)c3c3[nH]c4ccc(O)cc4c23)C(=O)N1NC(CO)CO` (stereo not given): the 50% inhibitory concentration (IC50) in the test on DLD-1 was determined as 11 µM; in the test on MKN-45, 0.25 µM; in the test on P388 [2], 0.0068 µM. The molecule further gave a GID75 in the test with Mus musculus of 300 mg m**-2. In the test on Mus musculus, this molecule came in with an LD10 of 380 mg m**-2. The molecule further yielded an EC200 in the test on P388 [1] of 0.6 µM. Further, the Ratio in test [3] was 1.3. Also, the EC50 on DNA topoisomerase 1 was 0.21 µM.
Turning to `O=C1c2c(c3c4ccc(O)cc4n(C4OC(CO)C(O)C(O)C4O)c3c3[nH]c4c(O)cccc4c23)C(=O)N1NC(CO)CO` (stereo not given), the IC50 in the test with DLD-1 amounted to 0.2 µM; in the test with MKN-45 it was 0.065 µM; in the test on P388 [2], 0.01 µM. The same molecule showed a GID75 with Mus musculus of 320 mg m**-2. In the test with Mus musculus, this molecule had an LD10 of 350 mg m**-2. In the test with P388 [1], this molecule returned an EC200 of 0.8 µM. Also, the Ratio in test [3] was 1.1. This molecule also had a concentration giving a half-maximal response (EC50) at DNA topoisomerase 1 of 0.055 µM.
For `O=C1c2c(c3c4ccccc4n(C4OC(CO)C(O)C(O)C4O)c3c3[nH]c4c(O)cccc4c23)C(=O)N1NC(CO)CO` (stereo not given), the half-maximal inhibitory concentration (IC50) in the test with DLD-1 stood at 10 µM; with MKN-45, 1.6 µM; in the test with P388 [2], 0.14 µM. The molecule further yielded an EC200 with P388 [1] above 10 µM. In addition, the EC50 at DNA topoisomerase 1 is 0.21 µM.
For `O=C1c2c(c3c4ccccc4n(C4OC(CO)C(O)C(O)C4O)c3c3[nH]c4cc(O)ccc4c23)C(=O)N1NC(CO)CO` (stereo not given), the 50% inhibitory concentration (IC50) with DLD-1 stood at 2 µM; with MKN-45, 0.11 µM; in the test on P388 [2], 0.013 µM. The same molecule registered a GID75 in the test on Mus musculus of 820 mg m**-2. In the test with Mus musculus, this molecule gave an LD10 of 2700 mg m**-2. The same molecule showed an EC200 with P388 [1] of 1.2 µM. The Ratio in test [3] worked out at 3.3. The molecule further registered a half-maximal effective concentration (EC50) on DNA topoisomerase 1 of 0.65 µM.
Consider `O=C1c2c(c3c4cc(O)cc(O)c4n(C4OC(CO)C(O)C(O)C4O)c3c3[nH]c4c(O)cc(O)cc4c23)C(=O)N1NC(CO)CO` (stereo not given), for which the half-maximal inhibitory concentration (IC50) in the test on DLD-1, in the test with MKN-45 and in the test on P388 [2] was above 30 µM in each case. The EC200 in the test on P388 [1] was determined as 5.5 µM. The molecule also displayed a half-maximal effective concentration (EC50) on DNA topoisomerase 1 of 0.35 µM.
For `O=C1c2c(c3c4cccc(O)c4n(C4OC(CO)C(O)C(O)C4O)c3c3[nH]c4ccccc4c23)C(=O)N1NC(CO)CO` (stereo not given), the figures for the half-maximal inhibitory concentration (IC50) with DLD-1, in the test with MKN-45 and in the test on P388 [2] were 2.6 µM, 0.64 µM and 0.022 µM, respectively. Moreover, in the test with P388 [1], the EC200 amounted to 2 µM. This molecule also returned an EC50 at DNA topoisomerase 1 of 0.65 µM.
Turning to `O=C1c2c(c3c4cc(O)ccc4n(C4OC(CO)C(O)C(O)C4O)c3c3[nH]c4cc(O)ccc4c23)C(=O)N1NC(CO)CO` (stereo not given), the IC50 with DLD-1 worked out at 0.34 µM; in the test with MKN-45, 0.12 µM; in the test with P388 [2], 0.0035 µM. The same molecule came in with a GID75 in the test with Mus musculus of 710 mg m**-2. For the same molecule, the LD10 in the test on Mus musculus was 1000 mg m**-2. Also, the EC200 in the test on P388 [1] was 0.65 µM. Moreover, the Ratio in test [3] is 1.4. This molecule also came in with an EC50 on DNA topoisomerase 1 of 0.055 µM.
